Reference: patent US20140314752A1, “METHODS FOR TREATING CANCER USING TOR KINASE INHIBITOR COMBINATION THERAPY” (Signal Pharmaceuticals, LLC, priority 2013, published 2014)

What was measured:
Assay type in all cases: cell-based, human
[1] = system: Lenalidomide-resistant H929 cell lines (H929 R10-1 through 4); assay: Anti-proliferative effect on lenalidomide-resistant H929 cell lines; details: lenalidomide-resistant H929 lines with ~50% reduction in cereblon protein
Procedure: Cell density and viability were monitored using the Vi-cell XR cell viability analyzer (Beckman Coulter). Once cell viability was >90% and cell density was ˜5×10^5 cells/mL (log phase), the cells were incubated at the indicated concentrations of a TOR kinase inhibitor and/or second active agent at a final concentration of 0.1% vehicle (DMSO). For combination studies, the TOR kinase inhibitor and the second active agent were simultaneously added to cells in triplicate. Cell proliferation was determined after 5 days of treatment by flow cytometry on unfixed cells and using 7-aminoactinomycin D (7AAD) (Molecular Probes, Carlsbad, Calif., USA) exclusion (0.25% final dye concentration) for viability assessment. Flow cytometry was utilized to gate on the target cells and to measure 7AAD negative and 7AAD positive cells. Stained cells were analyzed on a FACS Array flow cytometer with standard BD FACS Array System software (BDBiosciences, Palo Alto, Calif.). The percentage of surviving cells (7AAD negative) was calculated relative to cells treated with vehicle (DMSO) control. For single compound treatments (TOR kinase inhibitor and second active agents separately), the average values from triplicates were plotted to obtain IC50 values using software XLfit from IDBS. […]

[2] = system: lenalidomide-sensitive and resistant myeloma cell lines; assay: Combination effects in lenalidomide-sensitive and resistant myeloma cell lines; details: multiple myeloma cell lines in vitro
Text: Cell lines and cell culture: Cell lines were purchased from American Type Culture Collection (ATCC) and maintained in culture medium recommended by ATCC. […] Multiple myeloma (MM) cell lines that were used or can be used include the following: NCI-H929, LP-1, MM1.s, U266B1, DF-15 and RPMI-8226 human MM-derived cell lines. The […] ® resistant cell lines H929/R1, H929/R2, H929/R3 and H929/R4 were established by continuous exposure of H929 parental cells (H929) to increasing concentrations of […] ® for a minimum of 5 months. The control cell line H929/D was established by continuous exposure of H929 parental cells to 0.1% DMSO.
The number of cells affected by compound treatment was normalized to the DMSO control (100% viability) and the data was imported into the CalcuSyn software (V2.1, Biosoft). Synergism was quantitated by the combination index (CI) using CalcuSyn according to Chou-Talalay's CI method with mathematical modeling and simulations. […] ED50 is the median effect dose at which a 50% growth inhibition is achieved.
Cell density and viability were monitored using the Vi-cell XR cell viability analyzer (Beckman Coulter). […] Cell proliferation was determined after 5 days of treatment by flow cytometry on unfixed cells and using 7-aminoactinomycin D (7AAD) (Molecular Probes, Carlsbad, Calif., USA) exclusion (0.25% final dye concentration) for viability assessment. […]

[3] = system: HepG2 cells; assay: Anchorage independent growth (colony formation) assay; details: single agent, concentrations of 0.1 to 100 μM
Procedure: (§1) Cell Lines/Cells. Human cell lines HepG2 and SK-Hep-1 cells were obtained from American Type Culture Collection (ATCC; Manassas, Va.). Cells were cultured in DMEM (Dulbecco's Modified Eagle's Medium) (Mediatech; Mannasas, Va.) with 10% Premium FBS (Lonza, Walkersville, Md.).
(§2) (1) Single Agent Colony Formation Assay. Nobel Agar (1.2 grams; BD; Franklin Lakes, N.J.) was placed in a 100-mL sterile bottle. Sterile water (100 mL) was added and microwaved until the agar boiled. Equal volumes of agar and 2×RPMI medium (ECE Scientific; Doylestown, Pa.) were mixed and 300 μL were transferred to each well in a 24-well flat bottom plate (BD; Franklin Lakes, N.J.). Plates were kept at 4° C. until the agar solidified. Cultures of HepG2 and SK-Hep-1 cells were harvested and resuspended in culture medium at 3.6×10^3 cells/mL. Equal volumes of agar, 2×RPMI, and cell suspension (1:1:1) were mixed in a sterile tube and 500 μL/well were immediately transferred into the 24-well plates. Plates were kept at 4° C. until the agar solidified. Culture medium (500 μL) containing compound or DMSO was added to each well (final DMSO concentration for each treatment was 0.2%). Compound 1 was tested at final concentrations of 0.1, 0.3, 1, 3, 10 and 30 μM. […]
(§3) Significance versus the DMSO control was calculated using One Way ANOVA and Dunnett's Post test or unpaired t tests using GraphPad Prism v5.01.

[4] = system: SK-Hep-1 cells; assay: as above; details: single agent, concentrations of 0.1 to 100 μM
Procedure: as §1, §2, §3

SMILES	Anti proliferative effects, single agent [1]	Dependence of activity on cereblon protein levels [2]	Anti-colony forming activity [3]	Anti-colony forming activity [4]
CO[C@H]1CC[C@H](N2C(=O)CNc3ncc(-c4ccc(C(C)(C)O)nc4)nc32)CC1 [Compound 1, 7-(6-(2-hydroxypropan-2-yl)pyridin-3-yl)-1-((1r,4r)-4-methoxycyclohexyl)-3,4-dihydropyrazino-[2,3-b]pyrazin-2(1H)-one]	potent anti proliferative effects	independent of cereblon protein levels	dose-dependent and significant anti-colony forming activity	dose-dependent and significant anti-colony forming activity
CCN1C(=O)CNc2ncc(-c3ccc(-c4nc[nH]n4)nc3C)nc21 [Compound 2, 1-ethyl-7-(2-methyl-6-(1H-1,2,4-triazol-3-yl)pyridin-3-yl)-3,4-dihydropyrazino[2,3-b]pyrazin-2(1H)-one]	potent anti proliferative effects	independent of cereblon protein levels		
